Source: DBAASP
Values after ≈ are worked out from the molar mass of the structure shown. Values joined by “and” are separate entries in the source; they are usually repeats but may differ in a detail not shown here. Equal values may be shown once.

Tests used:
Test in all cases: ≥ marks a high value that may be exact or a test limit, other limits are often not marked, values filed in µg/mL are converted to µM
[1] = test system: Escherichia coli ATCC 25922
Escherichia coli K88 = test system: Escherichia coli K88
Escherichia coli K99 = test system: Escherichia coli K99
Escherichia coli UB1005 = test system: Escherichia coli UB1005
[2] = test system: Lacticaseibacillus rhamnosus 1.0385
[3] = test system: Lacticaseibacillus rhamnosus 1.0911
[4] = test system: Lacticaseibacillus rhamnosus 1.0936
[5] = test system: Lacticaseibacillus rhamnosus 7469
[6] = test system: Lactiplantibacillus plantarum 8014
[7] = test system: Pseudomonas aeruginosa ATCC 27853
[8] = test system: Salmonella enterica subsp. enterica serovar Pullorum C79-13
[9] = test system: Salmonella enterica subsp. enterica serovar Typhimurium ATCC 14028
[10] = test system: Salmonella enterica subsp. enterica serovar Typhimurium C77-31
[11] = test system: Staphylococcus aureus ATCC 25923
[12] = test system: Staphylococcus aureus ATCC 29213
[13] = test system: Staphylococcus aureus ATCC 43300
[14] = test system: Acinetobacter baumannii 9931
[15] = test system: Acinetobacter baumannii ATCC 19606
[16] = test system: Bacillus subtilis ATCC 23857
Escherichia coli 780 = test system: Escherichia coli 780
[17] = test system: Klebsiella pneumoniae ATCC 700603
[18] = test system: Pseudomonas aeruginosa 50
[19] = test system: Pseudomonas aeruginosa ATCC 9027
[20] = test system: Staphylococcus aureus 113
Staphylococcus aureus 75 = test system: Staphylococcus aureus 75
[21] = test system: Staphylococcus epidermidis ATCC 12228
[22] = test system: Candida albicans ATCC 36232
[23] = test system: Micrococcus luteus ATCC 9341
[24] = test system: Staphylococcus aureus ATCC 6538

| SMILES | MIC [1] [µM] | MIC (Escherichia coli K88) [µM] | MIC (Escherichia coli K99) [µM] | MIC (Escherichia coli UB1005) [µM] | MIC [2] [µM] | MIC [3] [µM] | MIC [4] [µM] | MIC [5] [µM] | MIC [6] [µM] | MIC [7] [µM] | MIC [8] [µM] | MIC [9] [µM] | MIC [10] [µM] | MIC [11] | MIC [12] [µM] | MIC [13] [µM] | other results |
| --- | --- | --- | --- | --- | --- | --- | --- | --- | --- | --- | --- | --- | --- | --- | --- | --- | --- |
| C[C@H](NC(=O)[C@H](C)NC(=O)[C@H](Cc1c[nH]c2ccccc12)NC(=O)[C@H](Cc1c[nH]c2ccccc12)NC(=O)[C@H](Cc1c[nH]c2ccccc12)NC(=O)[C@@H](N)CCCN=C(N)N)C(N)=O [RWWWAA] | > 64 | ≥ 64 | ≥ 64 | ≥ 64 | ≥ 64 | ≥ 64 | ≥ 64 | ≥ 64 | ≥ 64 | > 64 | ≥ 64 | > 64 | ≥ 64 | > 64 µM | > 64 | > 64 | – |
| NC(=O)[C@H](Cc1c[nH]c2ccccc12)NC(=O)[C@H](CCCN=C(N)N)NC(=O)[C@H](Cc1c[nH]c2ccccc12)NC(=O)[C@H](Cc1c[nH]c2ccccc12)NC(=O)[C@H](CCCN=C(N)N)NC(=O)[C@H](Cc1c[nH]c2ccccc12)NC(=O)[C@H](Cc1c[nH]c2ccccc12)NC(=O)[C@H](CCCN=C(N)N)NC(=O)[C@H](Cc1c[nH]c2ccccc12)NC(=O)[C@H](Cc1c[nH]c2ccccc12)NC(=O)[C@H](CCCN=C(N)N)NC(=O)[C@H](Cc1c[nH]c2ccccc12)NC(=O)[C@H](Cc1c[nH]c2ccccc12)NC(=O)[C@H](CCCN=C(N)N)NC(=O)[C@@H](N)Cc1c[nH]c2ccccc12 [WRWWRWWRWWRWWRW] | – | – | – | – | – | – | – | – | – | 16 (≈ 42.6 µg/mL) | – | – | – | 8 µM and 16 µM | 8 (≈ 21.3 µg/mL) | – | MIC [14]: 16 µM (≈ 42.6 µg/mL); MIC [15]: 16 µM (≈ 42.6 µg/mL); MIC [16]: 4 µM (≈ 10.6 µg/mL); MIC (Escherichia coli 780): 16 µM (≈ 42.6 µg/mL); MIC [17]: 16 µM (≈ 42.6 µg/mL); MIC [18]: ≥ 32 µM; MIC [19]: 16 µM (≈ 42.6 µg/mL); MIC [20]: 4 µM (≈ 10.6 µg/mL); MIC (Staphylococcus aureus 75): 8 µM (≈ 21.3 µg/mL); MIC [21]: 4 µM (≈ 10.6 µg/mL) |
| C[C@@H]1NC(=O)[C@@H](N)CSSC[C@@H](C(=O)N[C@@H](CCCN=C(N)N)C(=O)N[C@@H](Cc2c[nH]c3ccccc23)C(=O)N[C@@H](Cc2c[nH]c3ccccc23)C(=O)N[C@@H](Cc2c[nH]c3ccccc23)C(=O)N[C@@H](CCCN=C(N)N)C(=O)N[C@@H](CCCN=C(N)N)C(N)=O)NC(=O)[C@H](Cc2ccccc2)NC(=O)[C@H](Cc2ccc(O)cc2)NC(=O)[C@H](CO)NC1=O [CASYFCRWWWRR] | 8 (≈ 13.7 µg/mL) | ≥ 32 | 4 (≈ 6.87 µg/mL) | 8 (≈ 13.7 µg/mL) | ≥ 64 | ≥ 64 | ≥ 64 | ≥ 64 | ≥ 64 | > 64 | 8 (≈ 13.7 µg/mL) | 64 (≈ 110 µg/mL) | ≥ 32 | 4 µM (≈ 6.87 µg/mL) | – | 4 (≈ 6.87 µg/mL) | – |
| CC(C)[C@H](NC(=O)[C@H](CCCCN)NC(=O)[C@H](Cc1ccccc1)NC(=O)[C@@H](NC(=O)[C@@H](NC(=O)[C@@H](N)CCCCN)C(C)C)C(C)C)C(=O)N[C@@H](CCCCN)C(=O)N[C@@H](Cc1ccccc1)C(=O)N[C@@H](CCCCN)C(=O)N[C@@H](CCCCN)C(=O)N[C@@H](CCCCN)C(N)=O [KVVFKVKFKKK] | – | – | – | – | – | – | – | – | – | – | – | – | – | – | – | – | MIC [22]: 4.53 µM and 2.27 µM and 3.21 µM; MIC [23]: 2.27 µM (≈ 3.13 µg/mL); MIC [24]: 2.27 µM (≈ 3.13 µg/mL) |
